Assay results taken from a melting point compilation (Tetko et al.; mined from patent text by program, amines drawn as free bases though some values may be those of a salt).

Row | SMILES | melting point
1 | CS(=O)(=O)C(Cl)=C(Cl)C#N | 100 °C
2 | CN(SN(C)C(=O)F)C(=O)F | 40 to 41 °C
3 | CCC12CCC3=C(CC(C)c4cc(OC)ccc43)C1=CCC21OCCO1 (stereo not given) | 116 to 119 °C
4 | O=C(CF)CS(=O)(=O)C(c1ccc(Cl)cc1)c1ccc(Cl)cc1 | 55 to 58 °C
5 | O=C(O)CN1C(=O)C(=Cc2ccc(OCc3ccc(F)cc3F)c(OCc3ccccc3)c2)SC1=S | 236 to 239 °C
6 | O=C(Sc1ccccn1)c1ccc(Br)cc1 | 69 to 70 °C
7 | COc1cc2c(cc1OC)CN(CCCOc1ccc(NC(=O)c3nccc4ccccc34)cc1)CC2 | 160 °C
8 | O=[N+]([O-])c1cc(C(F)(F)F)cc([N+](=O)[O-])c1Nc1ncc(Cl)cc1Cl | 85 to 87 °C
9 | CN1C(=O)C(F)N=C(c2ccccc2)c2cc(Cl)ccc21 (stereo not given) | 145 to 147 °C
10 | Cn1cc(C2=C(c3c4n(c5ccccc35)CCC(COS(C)(=O)=O)C4)C(=O)NC2=O)c2ccccc21 (stereo not given) | 259 to 261 °C
11 | CCCNCCc1ccc(NS(=O)(=O)c2ccc(Br)cc2)cc1 | 141 to 143 °C
12 | COc1ccc2c(c1)CC(CCCNCCCSc1nnc(-c3ccccc3)n1C)CC2 (stereo not given) | 92 to 95 °C
13 | NC(=O)c1c(N)n(C2CCCC2)c2nc(Nc3ccc(N4CCOCC4)cc3)ncc2c1=O | 265 °C
14 | CC1c2cc(O)ccc2-c2c1cc1cc(O)ccc1c2Cl (stereo not given) | 215 to 220 °C
15 | CCCCCCCCCCCCCCCCCC(=O)NCCS | 63 to 65 °C
16 | CC(=O)c1ccc(-c2ccc(S)cc2)cc1 | 126 to 128 °C
17 | Cc1ccnc(N2CCN(CCc3c(C)n4c5c(cc(NC(=O)c6ccccc6)cc35)CCC4)CC2)c1 | 218 °C
18 | Cc1cc(C)c([Si]2(c3c(C)cc(C)cc3C)C(=O)C(c3ccccc3)=C(c3ccccc3)C(=O)[Si]2(c2c(C)cc(C)cc2C)c2c(C)cc(C)cc2C)c(C)c1 | 67 to 68 °C
19 | N#CSCC(Br)=C(Br)CSC#N | 180 °C
20 | c1ccc(-c2ccn3cnnc3n2)cc1 | 192 °C
21 | Nc1ccc2ccccc2c1[N+](=O)[O-] | 123 to 125 °C
22 | CC1(Nc2ccccc2)OC(=O)C=C1c1ccccc1 (stereo not given) | 158 to 160 °C
23 | CCN(CC)CC(O)Cn1cc(-c2ccccc2)c2ccccc2c1=O (stereo not given) | 106 °C

Row | SMILES | melting point
24 | Cc1cccc(Cn2c(NC3CCN(CCO)CC3)nc3cccnc32)n1 | 152 °C
25 | Cc1cc(=O)n(-c2ccccc2)c2[nH]n(-c3ccccc3)c(=O)c12 | 145 to 147 °C
26 | CN(CP(=O)(O)O)C1CCS(=O)(=O)C1 (stereo not given) | 222 to 225 °C
27 | CC1NC(=O)NN=C1c1ccc(Br)cc1 (stereo not given) | 214 to 215 °C
28 | COc1cc(-c2nc(Nc3ccc(C)cc3)c3ccccc3n2)cc(OC)c1OC | > 250 °C
29 | CCC1c2ccc(C=O)n2-c2ccc(F)cc2N1S(=O)(=O)c1ccc(O)c(C)c1 (stereo not given) | 192 to 194 °C
30 | Cc1cnc(N2CCN(CC[C@H]3CC[C@H](NC(=O)CC4CCOCC4)CC3)CC2)c2c1OCC2 | 199 °C
31 | CC12CC=C3C4=C(CCC3C1CCC2=O)CC1(CC4)OCCO1 (stereo not given) | 110 to 112 °C
32 | N#Cc1nn(-c2c(Cl)cc(C(F)(F)F)cc2Cl)c(Br)c1[N+](=O)[O-] | 147 to 150 °C
33 | O=C(O)Cc1cccc(OCCCc2cc(-c3ccc(C(F)(F)F)cc3)no2)c1 | 126 to 127 °C
34 | COc1ccc2oc(-c3nc4c(s3)NCCCC4)cc2c1 | 121 to 125 °C
35 | CN1CCN(c2ncnc3oc(-c4ccc([N+](=O)[O-])cc4)c(-c4ccc(F)cc4)c23)CC1 | > 250 °C
36 | CS(=O)c1c(C#N)nn(-c2ccc(C(F)(F)F)cc2Cl)c1N (stereo not given) | 146 to 147 °C
37 | O=C(O)C1Cc2ccccc2N1S(=O)(=O)c1ccc(-c2cccc(C(F)(F)F)c2)cc1 (stereo not given) | 108 to 112 °C
38 | Ic1nnnn1-c1ccccc1 | 123 to 129 °C
39 | Cc1nc(C#N)ccc1N | 192 to 196 °C
40 | CS(=O)(=O)c1ccc(-c2ccccc2Oc2ccccc2)cc1 | 130 to 131 °C
41 | C=CC[C@@H]1CCc2cc(OC)ccc2[C@H]1O (relative stereo) | 63 to 65 °C
42 | COc1cc(OC)c2c(=O)[nH]c(-c3ccc4[nH]nc(CO)c4c3)nc2c1 | 264 to 266 °C
43 | CC(=O)c1ccc(Nc2c3ccccc3nc3occc23)cc1 | 220 to 221 °C
44 | NN1CC1c1ccccc1 (stereo not given) | 60 °C
45 | N#CCc1cc(O)c(O)c(F)c1 | 100 to 101 °C
46 | S=C(Nc1ccc(Sc2ccc3ccccc3n2)cc1)Nc1ccc(Cl)c(Cl)c1 | 125 to 126 °C

Second part, the compound after the results:

Row | melting point | SMILES
47 | 190 to 192 °C | CCOC(=O)c1c2ccc(CC(=O)NOCCO)ccc-2c(C(=O)OCC)c1N
48 | 159 to 160 °C | O=C(O)C(=O)c1ccccc1Nc1c(Cl)cccc1Cl
49 | 252 °C | COc1ccc(C(=O)Nc2c(Cl)cncc2Cl)c2c1oc1ccc(NC(C)=O)cc12
50 | 93 to 95 °C | CCOC(=O)c1ccc(CN2CC[C@H](NC(=O)OC(C)(C)C)C2=O)c(C(F)(F)F)c1
51 | 90 °C | CCOC(=O)c1c(Nc2ccccc2N)c(C)cn1C
52 | 228 to 229 °C | CCOc1cc(C)nc2nc(S(=O)(=O)Nc3c(Cl)ccc(C)c3Cl)nn12
53 | 167 to 169 °C | CC(C)(C)c1cc(CCC(=O)O)cc2c1OC(=O)C2
54 | 140 to 142 °C | Cc1cc(-n2ccc(O)cc2=O)sc1C(=O)NCc1cccc(F)c1
55 | 67 to 68 °C | CCOC(=O)CSc1nnc(S)s1
56 | 94 to 96 °C | CC(=O)OCCc1ccc(C2=NNC(=O)CC2)cc1
57 | 157 °C | CC1CNC(CN(CC(=O)O)C(=O)c2ccccc2)c2ccccc21 (stereo not given)
58 | 110 to 112 °C | CCc1cccc(C)c1CNc1cc(Br)cc2c1nc(COC)n2C
59 | 162 to 164 °C | C=CCN(C)c1nc(-c2cc(OC)c(OC)c(OC)c2)nc2sc(C#N)c(C)c12
60 | 240 °C | CCNC(=O)Nc1cnc2ccc(Cl)nc2n1
61 | 162 to 164 °C | NC(=O)CCCCn1cnc(NC(N)=NCC(F)(F)F)n1
62 | 197 °C | CCc1cccc(C)c1CNc1nc(C(=O)N2CCCC2)cn2c(C)c(C)nc12
63 | 74 to 76 °C | CCN1C(=O)C(=C(O)Cc2ccccc2)SC1=S
64 | 102 to 104 °C | CCOC(=O)C1CCN(C(=O)CN2CCN(c3ccncc3)CC2)CC1
65 | 100 to 101 °C | COC(=O)c1cc2ccc(OCCc3ccccc3)cc2oc1=O
66 | 146 to 147 °C | CCCN1CCc2c(cccc2NC(=O)c2ccc(OC)c(OC)c2)C1

Row | melting point | SMILES
67 | 82 to 90 °C | CCOC(=O)C1C(=O)N(CC)c2cc3cc(C)oc3cc21 (stereo not given)
68 | 67 to 71 °C | CC(=O)CC(=O)OCCCN1C(=O)c2ccccc2C1=O
69 | 127 to 129 °C | COc1ccc(N(Cc2cc(C(C)(C)C)c(O)c(C(C)(C)C)c2)S(=O)(=O)c2ccc(C)cc2)cn1
70 | 214 to 217 °C | O=C(O)c1cc2ccc(OCCNC[C@H](O)COc3ccccc3)cc2o1
71 | 81 to 82 °C | O=C(NC1(c2cccc(F)c2)CCC1)OCc1ccccc1
72 | 100 to 101 °C | CCN1CCCC1CNC(=O)c1nc(Cl)c(OC)nc1OC (stereo not given)
73 | 53 to 54 °C | CN(C)C=NS(=O)(=O)CCC(C)(C)CC#N
74 | 151 to 152 °C | CCCCCCCCCCOc1ccc(C(=O)O)cc1C12CC3CC(CC(C3)C1)C2
75 | 153 to 154 °C | CCC[C@H](N[C@@H](C)C(=O)O)C(=O)OCC
76 | 87 °C | CCC(O)(CC)c1ccc(-c2cccc(COc3ccc(CO)c(CO)c3)c2)c(C)c1
77 | < 40 °C | CCOC(=O)C(O)=CC=C(SCc1ccccc1)C(=O)OCC
78 | 120 °C | CCN(CCCCNC(=O)c1ccc2ccccc2c1)C1CCc2ncsc2C1 (stereo not given)
79 | 63.6 to 64.4 °C | CCOC(=O)c1cc(-c2ccc(OC)cc2)nn(CC2CCCC2)c1=O
80 | 206 to 207 °C | CC(C)(C)OCC(NC(=O)c1ccccc1SSc1ccccc1C(=O)NC(COC(C)(C)C)C(=O)O)C(=O)O (stereo not given)
81 | 127 to 129 °C | O=C(NCCCn1ccnc1)c1ccoc1
82 | 203 to 204 °C | COc1cc(C(=O)O)ccc1C(F)(F)F
83 | 192 to 193 °C | CCOC(=O)C(NC(=O)OC(C)(C)C)c1csc(NC(=O)CCl)n1 (stereo not given)
84 | 98 to 101 °C | COC(=O)c1ccc2nc(C)ccc2c1
85 | 121 to 122 °C | COc1ccc(NC(=O)OCC2(C(C)=O)CC3C=CC2C3)cc1C (stereo not given)
86 | 106 to 109 °C | CCCCCCC1=CC(O)(C(Br)Br)NC1=O (stereo not given)

Row | melting point | SMILES
87 | 132 to 133 °C | C=CCn1c(NC)nn(C(=O)Nc2ccccc2)c1=S
88 | 270 to 271 °C | CCn1c(=O)c2[nH]c(/C=C/c3ccc(OCOC)cc3)nc2n(CC)c1=O
89 | 144 to 146 °C | CCOC(=O)c1ccc(NC(=O)c2ccc(OC)c(OC)c2)c2ccccc12
90 | 93 °C | COC(=O)C1CCn2c1cc(Br)c2C(=O)c1ccccc1 (stereo not given)
91 | 104 °C | CCOC(=O)c1cnn(-c2ccc(OCC(C)CC)c(C#N)c2)c1 (stereo not given)
92 | 187 to 189 °C | COC(=O)NCCCCC(NC(=O)OC)C(=O)OC (stereo not given)
93 | 140 to 141 °C | OCCNc1c(Br)cnc2cc(C(F)(F)F)ccc12
94 | 117 to 118 °C | CC(C)(C)OC(=O)N1CCN(CCC#N)CC1C(N)=O (stereo not given)
95 | 203 to 204 °C | COc1ccc(N2C(=O)C3=C(CCCC3)C2CC(=O)O)cc1 (stereo not given)
96 | 47 to 49 °C | CC(=O)CS(=O)(=O)N(C)C
97 | 149 to 151 °C | Cc1nc(-n2cnn(Cc3ccc(F)cc3)c2=O)sc1C(=O)NCc1cccc(N(C)C)c1
98 | 187 to 189 °C | CCCC(c1cc(C(=O)O)ccc1OCc1ccc(Br)cc1)n1ccnc1 (stereo not given)
99 | 83 to 84 °C | CCOc1cccc(CC(=O)O)c1OCCCc1cn(-c2ccc(C(F)(F)F)cn2)nc1C(CC)CC
100 | 47 to 48 °C | CCOC(=O)c1ccccc1C=C(C)C=CC=C(C)CCC=C(C)C
101 | 152 to 156 °C | CN(C)c1nc2c(NCc3ccccc3)ncnc2n1C1OC(CO)C(O)C1O (stereo not given)
102 | 144 to 145 °C | Cc1nc2ccc(CBr)cc2c(=O)n1COC(=O)C(C)(C)C
103 | 193 to 194 °C | CC(=O)OCSC1=CCC2C3CCC4=CC(=O)C=CC4(C)C3(F)C(O)CC12C (stereo not given)
104 | 103 to 105 °C | CC(=CC(=O)c1ccc(Cl)cc1)N(C)C
105 | 205 to 206 °C | CC(=O)NCC1CN(c2ccc(N3CCN(c4nccs4)CC3)c(F)c2)C(=O)O1 (stereo not given)
